pIC50: −log10 of the molar value.
Legend:
[1] = target: b-Raf (V600E) (Homo sapiens (Human), UniProt P15056, V600E); experiment: In vitro Raf activity determination (Alpha Screen, phospho-MEK), b-Raf (V600E); assay type: biochemical; details: ATP 10 μM, 60 min pre-incubation, 3 hours reaction
[2] = target: C-Raf FL (Homo sapiens (Human), UniProt P04049, Y340E/Y341E); experiment: In vitro Raf activity determination (Alpha Screen, phospho-MEK), C-Raf FL (full length, Y340E/Y341E); assay type: biochemical; details: ATP 1 μM; 60 min pre-incubation; 1 hour reaction; column head does not say FL or TR
C-Raf FL, sequence (P04049 whole entry Y340E/Y341E): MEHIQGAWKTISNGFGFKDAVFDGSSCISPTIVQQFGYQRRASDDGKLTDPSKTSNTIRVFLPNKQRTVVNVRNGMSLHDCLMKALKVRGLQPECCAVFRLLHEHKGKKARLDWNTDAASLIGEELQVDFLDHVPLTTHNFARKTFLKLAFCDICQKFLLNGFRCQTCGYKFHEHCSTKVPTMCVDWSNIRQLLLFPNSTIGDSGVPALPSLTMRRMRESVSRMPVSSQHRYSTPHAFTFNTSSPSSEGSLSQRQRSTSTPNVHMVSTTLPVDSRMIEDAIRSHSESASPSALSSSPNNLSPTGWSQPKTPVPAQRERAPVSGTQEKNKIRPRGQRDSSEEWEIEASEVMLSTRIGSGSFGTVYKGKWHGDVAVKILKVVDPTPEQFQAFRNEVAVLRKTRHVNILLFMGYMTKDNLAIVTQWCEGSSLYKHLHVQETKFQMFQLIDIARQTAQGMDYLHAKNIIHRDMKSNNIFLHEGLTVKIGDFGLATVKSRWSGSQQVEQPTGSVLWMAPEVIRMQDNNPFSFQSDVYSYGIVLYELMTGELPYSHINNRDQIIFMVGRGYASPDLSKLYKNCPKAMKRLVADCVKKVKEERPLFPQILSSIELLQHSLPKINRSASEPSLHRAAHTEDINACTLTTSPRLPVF
C-Raf FL, sequence (P63104 whole entry partner): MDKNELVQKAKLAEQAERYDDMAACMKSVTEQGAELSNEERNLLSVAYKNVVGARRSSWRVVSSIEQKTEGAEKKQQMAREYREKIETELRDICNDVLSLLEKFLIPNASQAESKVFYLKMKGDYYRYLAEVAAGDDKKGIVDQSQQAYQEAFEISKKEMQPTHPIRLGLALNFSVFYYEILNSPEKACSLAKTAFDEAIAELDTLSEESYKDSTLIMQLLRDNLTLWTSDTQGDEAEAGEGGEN
How it was run: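 Sf9-expressed C-Raf incubated with biotinylated kinase-dead MEK1 (K97R) in 50 mM Tris pH 7.5, 15 mM MgCl2, 0.01% BSA, 1 mM DTT with compound, 60 min at room temperature. Phospho-MEK detected by anti-p-MEK AlphaScreen luminescence; IC50 by non-linear regression.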

b-Raf (V600E), sequence (P15056 whole entry V600E): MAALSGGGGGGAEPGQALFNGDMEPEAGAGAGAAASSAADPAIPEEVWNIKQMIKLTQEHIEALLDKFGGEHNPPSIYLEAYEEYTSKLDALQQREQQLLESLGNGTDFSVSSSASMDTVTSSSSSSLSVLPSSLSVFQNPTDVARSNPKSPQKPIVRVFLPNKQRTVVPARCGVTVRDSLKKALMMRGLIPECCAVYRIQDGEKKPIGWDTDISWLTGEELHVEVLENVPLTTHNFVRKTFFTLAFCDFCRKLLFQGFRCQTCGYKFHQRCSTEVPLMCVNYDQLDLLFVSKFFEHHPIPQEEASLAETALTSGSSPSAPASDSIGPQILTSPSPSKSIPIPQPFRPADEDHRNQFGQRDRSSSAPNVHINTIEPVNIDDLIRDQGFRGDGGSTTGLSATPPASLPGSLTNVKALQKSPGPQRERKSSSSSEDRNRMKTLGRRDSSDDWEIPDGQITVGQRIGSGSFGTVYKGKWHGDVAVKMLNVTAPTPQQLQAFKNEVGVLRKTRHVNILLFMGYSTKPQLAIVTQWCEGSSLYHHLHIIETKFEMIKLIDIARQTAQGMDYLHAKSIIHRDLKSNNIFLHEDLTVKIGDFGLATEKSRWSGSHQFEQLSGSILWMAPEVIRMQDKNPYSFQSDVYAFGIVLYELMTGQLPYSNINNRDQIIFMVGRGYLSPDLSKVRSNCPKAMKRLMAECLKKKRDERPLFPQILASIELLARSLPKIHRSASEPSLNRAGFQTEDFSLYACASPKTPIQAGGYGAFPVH

Question: What does the source list for `COc1ncc(-c2cc(NC(=O)c3ccnc(C(C)(C)C#N)c3)ccc2C)cc1C1(CF)COC1` [Example 106, 2-(2-cyanopropan-2-yl)-N-(3-(5-(3-(fluoromethyl)oxetan-3-yl)-6-methoxypyridin-3-yl)-4-methylphenyl)isonicotin-amide]?
Answer: pIC50 [1]: 9.24; pIC50 [2]: 9.84

Question: `Cc1ccc(NC(=O)c2ccnc(C(C)(C)F)c2)cc1-c1cc(C2COC2)c(=O)n(C)c1` [Example 110, 2-(2-fluoropropan-2-yl)-N-(4-methyl-3-(1-methyl-5-(oxetan-3-yl)-6-oxo-1,6-dihydropyridin-3-yl)phenyl)isonicotinamide] was tested. Which pIC50 [1] did it give?
Answer: 8.00

Question: What about the pIC50 [2] of the same compound?
Answer: 8.82

Question: What does the source list for `COc1ncc(-c2cc(NC(=O)c3cc(C(C)(C)O)ccn3)ccc2C)cc1C1(F)COC1` [Example 96, N-(3-(5-(3-fluorooxetan-3-yl)-6-methoxypyridin-3-yl)-4-methylphenyl)-4-(2-hydroxypropan-2-yl)picolinamide]?
Answer: pIC50 [1]: 8.38; pIC50 [2]: 9.32

Question: `CCOc1ncc(-c2cc(NC(=O)c3ccnc(C(F)(F)F)c3)ccc2C)cc1C1(O)COC1` [Example 124, N-(3-(6-ethoxy-5-(3-hydroxyoxetan-3-yl)pyridin-3-yl)-4-methylphenyl)-2-(trifluoromethyl)isonicotin-amide] was tested. Which pIC50 [1] did it give?
Answer: 8.64

Question: What about the pIC50 [2] of the same compound?
Answer: 9.43

Question: With `COc1ncc(-c2cc(NC(=O)c3ccnc(C(F)(F)F)c3)ccc2C)cc1C1(O)COC1` [Example 71, N-(3-(5-(3-hydroxyoxetan-3-yl)-6-methoxypyridin-3-yl)-4-methylphenyl)-2-(trifluoromethyl)isonicotin-amide] as the compound, how does the pIC50 [1] read?
Answer: 8.55

Question: What about the pIC50 [2] of the same compound?
Answer: 9.45

Question: Which results are given for `Cc1ccc(NC(=O)c2ccnc(C(F)(F)F)c2)cc1-c1cnc(OC2CCOCC2)c(C2(O)COC2)c1` [Example 35, N-(3-(5-(3-hydroxyoxetan-3-yl)-6-((tetrahydro-2H-pyran-4-yl)oxy)pyridin-3-yl)-4-methylphenyl)-2-(trifluoromethyl)isonicotin-amide]?
Answer: pIC50 [1]: 9.02; pIC50 [2]: 9.53

Question: How did the pIC50 [1] turn out when `COc1ncc(-c2cc(C(=O)Nc3cccc(C(C)(C)C#N)c3)ccc2C)cc1C1(O)COC1` [Example 146, N-(3-(2-cyanopropan-2-yl)phenyl)-3-(5-(3-hydroxyoxetan-3-yl)-6-methoxypyridin-3-yl)-4-methylbenzamide] was run?
Answer: 8.48

Question: What about the pIC50 [2] of the same compound?
Answer: 9.10

Question: With `COc1ncc(-c2cc(NC(=O)c3cc(C(C)(F)F)ccn3)ccc2C)cc1C1(O)COC1` [Example 92, 4-(1,1-difluoroethyl)-N-(3-(5-(3-hydroxyoxetan-3-yl)-6-methoxypyridin-3-yl)-4-methylphenyl)picolinamide] as the compound, how does the pIC50 [1] read?
Answer: 8.66

Question: What about the pIC50 [2] of the same compound?
Answer: 9.48

Question: `COc1ncc(-c2cc(NC(=O)c3cc(C(C)(C)N)cc(C(F)(F)F)c3)ccc2C)cc1C1(O)COC1` [Example 101, 3-(2-aminopropan-2-yl)-N-(3-(5-(3-hydroxyoxetan-3-yl)-6-methoxypyridin-3-yl)-4-methylphenyl)-5-(trifluoromethyl)benzamide] was tested. Which pIC50 [1] did it give?
Answer: 8.19

Question: And the pIC50 [2]?
Answer: 8.84

Question: With `COc1ncc(-c2cc(NC(=O)c3ccnc(C(C)(C)C#N)c3)ccc2C)cc1C1(F)COC1` [Example 30, 2-(2-cyanopropan-2-yl)-N-(3-(5-(3-fluorooxetan-3-yl)-6-methoxypyridin-3-yl)-4-methylphenyl)isonicotin-amide] as the compound, how does the pIC50 [1] read?
Answer: 8.89

Question: What about the pIC50 [2] of the same compound?
Answer: 9.64

Question: Which results are given for `COc1ncc(-c2cc(NC(=O)c3ccnc(C(F)(F)F)c3)cnc2C)cc1C1(C#N)COC1` [Example 115, N-(5′-(3-cyanooxetan-3-yl)-6′-methoxy-2-methyl-[3,3′-bipyridin]-5-yl)-2-(trifluoromethyl)isonicotin-amide]?
Answer: pIC50 [1]: 8.15; pIC50 [2]: 8.98

Question: With `Cc1ccc(NC(=O)c2ccnc(C(C)(C)C#N)c2)cc1-c1cccc(C2(C)COC2)c1` [Example 27, 2-(2-cyanopropan-2-yl)-N-(6-methyl-3′-(3-methyloxetan-3-yl)-[1,1′-biphenyl]-3-yl)isonicotinamide] as the compound, how does the pIC50 [1] read?
Answer: 5.92

Question: What about the pIC50 [2] of the same compound?
Answer: 6.58

Question: `Cc1ncc(NC(=O)c2ccnc(C(C)(C)C#N)c2)cc1-c1cnc(OC2CCOCC2)c(C2(O)COC2)c1` [Example 34, 2-(2-cyanopropan-2-yl)-N-(5′-(3-hydroxyoxetan-3-yl)-2-methyl-6′-((tetrahydro-2H-pyran-4-yl)oxy)-[3,3′-bipyridin]-5-yl)isonicotinamide] was tested. Which pIC50 [1] did it give?
Answer: 7.69

Question: What about the pIC50 [2] of the same compound?
Answer: 8.12

Question: How did the pIC50 [1] turn out when `COc1ncc(-c2cc(NC(=O)c3cccc(C(F)(F)F)c3)cnc2C)cc1C1(CF)COC1` [Example 49, N-(5′-(3-(fluoromethyl)oxetan-3-yl)-6′-methoxy-2-methyl-[3,3′-bipyridin]-5-yl)-3-(trifluoromethyl)benzamide] was run?
Answer: 9.33

Question: What about the pIC50 [2] of the same compound?
Answer: 9.93

Question: What does the source list for `COc1ncc(-c2cc(NC(=O)c3cc(C(F)(F)F)ccn3)cnc2C)cc1C1(F)COC1` [Example 83, N-(5′-(3-fluorooxetan-3-yl)-6′-methoxy-2-methyl-[3,3′-bipyridin]-5-yl)-4-(trifluoromethyl)picolin-amide]?
Answer: pIC50 [1]: 10.23; pIC50 [2]: 10.87

Question: `CCOc1nnc(-c2cc(NC(=O)c3cc(CN(C)C)cc(C(F)(F)F)c3)cnc2C)cc1C1(C)COC1` [Example 129, 3-((dimethylamino)methyl)-N-(5-(6-ethoxy-5-(3-methyloxetan-3-yl)pyridazin-3-yl)-6-methylpyridin-3-yl)-5-(trifluoromethyl)benzamide] was tested. Which pIC50 [1] did it give?
Answer: 7.63

Question: What about the pIC50 [2] of the same compound?
Answer: 8.45

Question: How did the pIC50 [1] turn out when `COc1cc(-c2cc(NC(=O)c3cccc(C(F)(F)F)c3)cnc2C)cc(C2COC2)c1` [Example 20, N-(5-(3-methoxy-5-(oxetan-3-yl)phenyl)-6-methylpyridin-3-yl)-3-(trifluoromethyl)-benzamide] was run?
Answer: 8.16

Question: And the pIC50 [2]?
Answer: 9.20

Question: How did the pIC50 [1] turn out when `CCOc1ncc(-c2cc(NC(=O)c3ccnc(C(C)(C)C#N)c3)cnc2C)cc1C1(C)COC1` [Example 64, 2-(2-cyanopropan-2-yl)-N-(6′-ethoxy-2-methyl-5′-(3-methyloxetan-3-yl)-[3,3′-bipyridin]-5-yl)isonicotinamide] was run?
Answer: 8.15

Question: And the pIC50 [2]?
Answer: 8.93

Question: How did the pIC50 [1] turn out when `COc1ncc(-c2cc(NC(=O)c3cc(C(C)(C)C#N)ccn3)ccc2C)cc1C1(F)COC1` [Example 87] was run?
Answer: 8.45

Question: What about the pIC50 [2] of the same compound?
Answer: 9.21

Question: How did the pIC50 [1] turn out when `CCOc1ncc(-c2cc(NC(=O)c3cc(C(C)(C)N)cc(C(F)(F)F)c3)cnc2C)cc1C1(F)COC1` [Example 130, 3-(2-aminopropan-2-yl)-N-(6′-ethoxy-5′-(3-fluorooxetan-3-yl)-2-methyl-[3,3′-bipyridin]-5-yl)-5-(trifluoromethyl)benzamide] was run?
Answer: 7.70

Question: What about the pIC50 [2] of the same compound?
Answer: 8.51

Question: `COc1ncc(-c2cc(NC(=O)c3cc(C(C)(C)N)cc(C(F)(F)F)c3)cnc2C)cc1C1(C(F)F)COC1` [Example 113, 3-(2-aminopropan-2-yl)-N-(5′-(3-(difluoromethyl)oxetan-3-yl)-6′-methoxy-2-methyl-[3,3′-bipyridin]-5-yl)-5-(trifluoromethyl)benzamide] was tested. Which pIC50 [1] did it give?
Answer: 8.32

Question: What about the pIC50 [2] of the same compound?
Answer: 9.05

Question: With `Cc1ccc(C(=O)Nc2cccc(C(F)(F)F)c2)cc1-c1cccc(C2(C)COC2)c1` [Example 26, 6-methyl-3′-(3-methyloxetan-3-yl)-N-(3-(trifluoromethyl)phenyl)-[1,1′-biphenyl]-3-carboxamide] as the compound, how does the pIC50 [1] read?
Answer: 8.64

Question: What about the pIC50 [2] of the same compound?
Answer: 9.43

Question: `CCOc1ncc(-c2cc(NC(=O)c3ccnc(C(C)(F)F)c3)ccc2C)cc1C1(O)COC1` [Example 123, 2-(1,1-difluoroethyl)-N-(3-(6-ethoxy-5-(3-hydroxyoxetan-3-yl)pyridin-3-yl)-4-methylphenyl)isonicotin-amide] was tested. Which pIC50 [1] did it give?
Answer: 8.91

Question: What about the pIC50 [2] of the same compound?
Answer: 9.78

Question: With `COc1ncc(-c2cc(NC(=O)c3ccnc(C(C)(C)O)c3)ccc2C)cc1C1(O)COC1` [Example 73, N-(3-(5-(3-hydroxyoxetan-3-yl)-6-methoxypyridin-3-yl)-4-methylphenyl)-2-(2-hydroxypropan-2-yl)isonicotinamide] as the compound, how does the pIC50 [1] read?
Answer: 7.63

Question: What about the pIC50 [2] of the same compound?
Answer: 8.51
